{"source": "the NIST ThermoML archive (doi:10.1016/j.fluid.2015.03.023)", "settings": "Liquid; for mass density: 298.15 K, 101.33 kPa, Vibrating tube method; for vapor or sublimation pressure: 308.15 K, Ebulliometric method (Recirculating still)", "note": "± gives the expanded uncertainty stated by the source."}
{"smiles": "BrCBr", "note": "[dibromomethane]", "values": [{"measurement": "mass density", "result": "2478.61 ± 1.8", "unit": "kg/m3"}, {"measurement": "vapor or sublimation pressure", "result": "9.932 ± 0.1", "unit": "kPa"}]}
{"smiles": "ClC(Cl)(Cl)Br", "note": "[bromotrichloromethane]", "values": [{"measurement": "mass density", "result": "2002.14 ± 1.2", "unit": "kg/m3"}, {"measurement": "vapor or sublimation pressure", "result": "8.428 ± 0.1", "unit": "kPa"}]}
{"smiles": "ClCBr", "note": "[bromochloromethane]", "values": [{"measurement": "mass density", "result": "1921.71 ± 1.1", "unit": "kg/m3"}, {"measurement": "vapor or sublimation pressure", "result": "31.05 ± 0.18", "unit": "kPa"}]}
{"smiles": "CCCCCCC", "note": "[heptane]", "values": [{"measurement": "mass density", "result": "679.6 ± 0.18", "unit": "kg/m3"}, {"measurement": "vapor or sublimation pressure", "result": "9.916 ± 0.1", "unit": "kPa"}]}
